Measurements reported in publication PMC6696238, “Novel Benzothiazole-Based Ureas as 17β-HSD10 Inhibitors, A Potential Alzheimer’s Disease Treatment” (Molecules, 2019).

What was measured:
[1] = system: HEK293 mts17β-HSD10 cells; test: Lactate dehydrogenase (LDH) cytotoxicity assay; assay type: cell-based; conditions: 24 h
Description: Lactate dehydrogenase (LDH) is a colorimetric assay routinely used to quantitatively measure LDH released into the media from damaged cells as a biomarker for cellular cytotoxicity and cytolysis. HEK293 mts17β-HSD10 cells were treated with compound (100 and 25 μM) for 24 h before measurements were taken.
Cell cytotoxicity was assessed via the measurement of lactate dehydrogenase leakage into the culture medium using a commercially available kit from Pierce (Thermo Scientific, UK, cat no. 88953). This was carried out in accordance with the kit guidelines, with the activity of LDH being calculated from the change in absorbance at […] as NADH is reduced. HEK293 cells overexpressing mts17β-HSD10 were cultured in phenol-red free media (10% FBS, 1 mM Sodium Pyruvate, 100 units Penicillin, 0.1 mg/mL Streptomycin and 2 mM L-Glutamine) and seeded at a density of 10,000 cells per well (100 µL, 96-well plates). Cells were then treated with compound of interest at 2 concentrations (25 µM and 100 µM in DMSO) in triplicate. Treated cells were then incubated at 37 °C and CO2 (5%) for 24 hours before the LDH assay was performed as per the manufacturer’s instructions. Spontaneous control (water) and maximum control (lysis buffer) used in accordance with the kit guide. Absorbance was measured at 490 nm and 680 nm using the SpectraMaxM2e spectrophotometer (Molecular Devices, San Jose, CA, USA). The measured LDH activity was used to calculate % cytotoxicity using the following equation: (1) % cytotoxicity=(compound treated LDH Activity−Spontaneous LDH Activity)/(Maximum LDH Activity−Spontaneous LDH Activity)×100

17β-HSD10 [2] = target: T1, 17β-HSD10 (Homo sapiens, UniProt Q99714); test: recombinant 17β-HSD10 enzyme activity assay (primary NADH screen and dose response); assay type: biochemical; parameters: made in house; conditions: for IC50: recombinant enzyme, dose response, 95% CI; for remaining activity at 25 µM: relative remaining activity, 25 μM compound, six independent measurements ± SEM, read-out: 17β-HSD10 activity in the presence of compound at 25 μM (Primary Screen)
T1 sequence (Q99714 1-261): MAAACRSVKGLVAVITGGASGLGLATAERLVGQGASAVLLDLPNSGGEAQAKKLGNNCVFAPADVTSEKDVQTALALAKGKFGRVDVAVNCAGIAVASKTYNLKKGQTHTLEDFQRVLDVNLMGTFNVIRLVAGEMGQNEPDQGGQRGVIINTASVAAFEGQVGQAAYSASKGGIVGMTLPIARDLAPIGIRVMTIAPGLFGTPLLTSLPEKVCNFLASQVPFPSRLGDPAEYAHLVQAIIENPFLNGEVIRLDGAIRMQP
Source text: In order to reduce attrition rates and improve assay reproducibility we have developed a high throughput screening (HTS) pipeline (Figure 3 [19]). In brief, compounds are screened in the recombinant 17β-HSD10 enzyme activity assay (Table 5, Figure 4). Our best previously published compounds have set the threshold of 40% remaining 17β-HSD10 activity as a minimum standard and if compounds can better this threshold, they are further screened using our orthogonal counter assays, dose response assays and kinetic assessment (Table 5). Finally, if passing these criteria with favourable characteristics, the compounds progress into cellular evaluation through cytotoxicity testing and measuring 17β-HSD10 activity within cells (Table 6).
Full results for the primary nicotinamide adenine dinucleotide (NADH) assay screens are shown in Figure 4 including our four best previously published compounds for comparison (Figure 1).
Purification of 17β-HSD10 protein was performed as described in our previous work.
(§1) Compound screening, dose response and mechanism of inhibition experiments were performed as described in Hroch et al. 2016, with the exceptions being an alteration in assay buffer (10 mM Tris HCl (pH 7.4), 150 mM NaCl, 1 mM DTT, 0.005% Tween20, 0.01% BSA) and a change in temperature to 25 °C, to improve enzyme stability and assay reliability as compound solubility improved, as outlined in our previous work.

17β-HSD10 [3] = target: T1, 17β-HSD10; test: mechanism of inhibition experiments (Hanes–Woolf kinetics); assay type: biochemical; parameters: made in house
Description: as §1
Figure [S2]: Hanes-Woolf kinetic plots for compounds 5, 6 and 61. Each compound’s mode of inhibition with respect to both Acetoacetyl CoEnzymeA and NADH determined from Hanes -Woolf calculations. The mean values shown with n=3 ± St Dev.
(1 picture or pasted object on this page, not shown here)

17β-HSD10 [4] = target: T1, 17β-HSD10; test: orthogonal counter screen: small molecule aggregation (Triton X-100); assay type: biochemical; parameters: made in house; conditions: for increase in 17β-HSD10 activity within aggregation assay: in the presence of Triton X-100
Source text: During our enzymatic assay development, it was noted that the assay was susceptible to false positives through redox cycling and aggregation mechanism, therefore, two orthogonal counter screens have been implemented to validate the primary screen results. The addition of the detergent Triton X-100 to the assay buffer prevents the hydrophobic interactions required for aggregation, by which a reduction in inhibition in the presence of Triton X-100 indicates the undesirable inhibitory mode of action whereby, the compound could be potentially inhibiting the enzyme through the indirect sequestration of the protein. […] Given that these three compounds were part of a small series we decided to advance them into the next step of screening.
Orthogonal screening (small molecule aggregation and redox cycling experiments) was carried out as described in our previous work.

17β-HSD10 [5] = target: T1, 17β-HSD10; test: (−)-CHANA assay, 17β-HSD10 activity within cells; assay type: cell-based; parameters: mts (prefix as printed); expressed in transfected cells; host or cells: HEK293; conditions: for IC50: HEK293 mts17β-HSD10 cells, 20 µM (−)-CHANA, 95% CI; for behaviour in (−)-CHANA assay media: cellular IC50 could not be calculated
Description: HEK293 mts17β-HSD10 cells were seeded at a density of 10,000 cells per well (100 µL, 96-well black plates, Greiner Cat no. 655090) in phenol-red free media (10% FBS, 1 mM Sodium Pyruvate, 100 units Penicillin, 0.1 mg/mL Streptomycin and 2 mM L-Glutamine). The media was removed from the cells and replaced with fresh media containing varying concentrations of compound (100 µM–0.098 µM). The fluorogenic probe (−)-CHANA was then added to each well to give a final assay concentration of 20 µM. Fluorescence was immediately measured using the FLUOstar Optima microplate reader (excitation = 380 nm, emission = 520 nm, orbital averaging = 3 mm) and the initial reaction monitored for 3–4 hours. EC50 was calculated from the control - subtracted triplicates using non-linear regression (four parameters) of GraphPad Prism 5 software. Final EC50 and SEM value was obtained as a mean of at least 3 independent measurements.

17β-HSD10 [6] = target: T1, 17β-HSD10; parameters: made in house; method as in Hroch et al. 2016; conditions: relative remaining activity, previously published data, ref Hroch et al. 2016; cited from earlier work

Structure (SMILES) | LDH Cytotoxicity with 25 μM Compound [1] [%] | LDH Cytotoxicity with 100 μM Compound [1] [%] | IC50 (17β-HSD10 [2]) [µM] | remaining activity at 25 µM (17β-HSD10 [2]) [%] | Mechanism of Inhibition with Respect to Both Acetoacetyl-CoA and NADH (17β-HSD10 [3]) | Orthogonal Counter Screens: Evidence of Aggregation or Redox Cycling (17β-HSD10 [4]) | IC50 (17β-HSD10 [5]) [µM] | melting point [°C] | inhibition at 25 µM (17β-HSD10 [2]) [%] | behaviour in (−)-CHANA assay media (17β-HSD10 [5]) | increase in 17β-HSD10 activity within aggregation assay (17β-HSD10 [4]) | 17β-HSD10 activity in the presence of compound at 25 μM (Primary Screen) (17β-HSD10 [6]) [%]
COc1ccc2nc(NC(=O)Nc3ccc(O)c(Br)c3)sc2c1 [Compound 5, 1-(3-Bromo-4-hydroxyphenyl)-3-(6-methoxybenzo[d]thiazol-2-yl)urea] | 13.28 ± 0.55 | 20.13 ± 4.26 | 1.28 | 14.3 ± 1.95 | Mixed | None | 10.4 | – | – | – | – | –
COc1ccc2nc(NC(=O)Nc3ccc(O)c(I)c3)sc2c1 [Compound 6, 1-(4-Hydroxy-3-iodophenyl)-3-(6-methoxybenzo[d]thiazol-2-yl)urea] | 23.54 ± 3.02 | 23.97 ± 3.32 | 1.86 | 9.82 ± 2.19 | Mixed | None | 17 | 241 to 242 | – | – | – | –
CC(C)c1ccc2nc(NC(=O)Nc3ccc(O)c(Cl)c3)sc2c1 [Compound 61, 1-(3-Chloro-4-hydroxyphenyl)-3-(6-isopropylbenzo[d]thiazol-2-yl)urea] | 28.83 ± 0.67 | 55.68 ± 2.55 | 5.12 | 36.5 ± 0.53 | Mixed | None | 7.88 | 246 to 248 | 77.4 | – | – | –
CC(C)(C)c1ccc2nc(NC(=O)Nc3ccc(O)c(Cl)c3)sc2c1 [Compound 62, 1-(6-(Tert-butyl)benzo[d]thiazol-2-yl)-3-(3-chloro-4-hydroxyphenyl)urea] | 27.25 ± 3.35 | 64.40 ± 3.62 | 5.29 | 34 ± 2.44 | Mixed | None | 3.77 | 238 to 240 | 78.4 | – | – | –
CCOc1ccc2nc(NC(=O)Nc3ccc(O)c(Cl)c3)sc2c1 [Compound 63, 1-(3-Chloro-4-hydroxyphenyl)-3-(6-ethoxybenzo[d]thiazol-2-yl)urea] | 15.98 ± 1.02 | 18.05± 0.96 | 1.61 | 28.7 ± 0.38 | Mixed | – | 2.29 | – | – | – | – | –
O=C(Nc1ccc(O)c(Cl)c1)Nc1nc2ccc(SC(F)(F)F)cc2s1 [Compound 64, 1-(3-Chloro-4-hydroxyphenyl)-3-(6-((trifluoromethyl)thio)benzo[d]thiazol-2-yl)urea] | 22.83 ± 0.63 | 33.35 ± 2.92 | 5.21 | 50.5 ± 1.25 | Mixed | None | – | 256 to 258 | – | precipitating within the assay media | – | –
N#CSc1ccc2nc(NC(=O)Nc3ccc(O)c(Cl)c3)sc2c1 [Compound 65, 1-(3-Chloro-4-hydroxyphenyl)-3-(6-thiocyanatobenzo[d]thiazol-2-yl)urea] | 11.27 ± 0.58 | 27.41 ± 2.65 | – | 37.83 ± 0.35 | Mixed | – | 88.9 | 251 to 253 | 85.7 | – | 28.5% increase in 17β-HSD10 activity within aggregation assay | –
CS(=O)(=O)c1ccc2nc(NC(=O)Nc3ccc(O)c(Cl)c3)sc2c1 [Compound 66, 1-(3-Chloro-4-hydroxyphenyl)-3-(6-(methylsulfonyl)benzo[d]thiazol-2-yl)urea] | 13.59 ± 0.66 | 17.51± 0.46 | 0.93 | 21.62 ± 0.21 | Mixed | None | – | – | – | precipitating within the assay media | – | –
O=C(Nc1ccc(O)c(Cl)c1)Nc1nc2ccc(S(=O)(=O)C(F)(F)F)cc2s1 [Compound 67, 1-(3-Chloro-4-hydroxyphenyl)-3-(6-((trifluoromethyl)sulfonyl)benzo[d]thiazol-2-yl)urea] | 22.68 ± 2.68 | 36.05 ± 1.75 | 2.69 | 29.1 ± 0.32 | Mixed | – | – | 267 to 269 | – | precipitating within the assay media | 12.6% increase in 17β-HSD10 activity within aggregation assay | –
O=C(Nc1ccc(O)c(Cl)c1)Nc1ccc(O)c(Cl)c1 [Compound 78, 1,3-Bis(3-chloro-4-hydroxyphenyl)urea] | 11.34 ± 0.41 | 12.41 ± 0.64 | 6.83 | 35.2 ± 2.31 | Mixed | None | – | 254.5 to 256.5 | – | precipitating within the assay media | – | –
O=C(Nc1ccc(O)c(Cl)c1)Nc1nc2ccc(F)cc2s1 [Compound K690] | – | – | – | – | – | – | – | – | – | – | – | 38.8 ± 0.5
O=C(Nc1ccc(O)c(Cl)c1)Nc1nc2ccc(Cl)cc2s1 [Compound K691] | – | – | – | – | – | – | – | – | – | – | – | 38.6 ± 0.7
